The target of test [1] is Mitogen-activated protein kinase 1 (ERK2) (Homo sapiens) (UniProt P28482). The test is described as follows: Inhibition of MAPK2.
Test [2] concerns the target 3-phosphoinositide-dependent protein kinase 1 (PDPK1) (Homo sapiens) (UniProt O15530). The test can be described thus: Inhibition of PDK1.

Here are results for 1 compound from BindingDB's records for doi:10.1016/j.bmc.2007.10.061 (Osi Pharmaceuticals, 2008).

Sequence of Mitogen-activated protein kinase 1 (ERK2) (Homo sapiens) (P28482 whole entry, looked up): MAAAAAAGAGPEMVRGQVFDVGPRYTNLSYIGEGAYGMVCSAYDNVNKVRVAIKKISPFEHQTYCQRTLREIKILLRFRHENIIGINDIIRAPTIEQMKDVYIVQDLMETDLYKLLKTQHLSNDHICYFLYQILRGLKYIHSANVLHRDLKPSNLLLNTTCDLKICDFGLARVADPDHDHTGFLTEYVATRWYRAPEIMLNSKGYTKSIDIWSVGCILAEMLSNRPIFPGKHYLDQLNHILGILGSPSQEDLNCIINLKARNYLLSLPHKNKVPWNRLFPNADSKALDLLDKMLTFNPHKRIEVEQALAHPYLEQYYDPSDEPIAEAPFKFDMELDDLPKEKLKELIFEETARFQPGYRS

As a reminder, the IC50 is the concentration needed to halve the response being measured. The low end stands for greater potency, the high end for weaker potency. Take `Nc1nccn2c1c(-c1ccc3ccc(-c4ccccc4)nc3c1)nc2[C@H]1C[C@@H](CN2CCC2)C1` [cis-3-(3-(azetidin-1-ylmethyl)cyclobutyl)-1-(2-phenylquinolin-7-yl)imidazo[1,5-a]pyrazin-8-amine]: the figures for the 50% inhibitory concentration (IC50) in test [1] and in test [2] were above 10 µM and above 30 µM, respectively.
